Data published in publication PMC6757289, “Design and Characterization of SGK3-PROTAC1, an Isoform Specific SGK3 Kinase PROTAC Degrader” (ACS Chemical Biology, 2019).
Like-named read-outs stand apart in the source and are kept apart here.

Experiments:
Assay in all cases: kinase profiling panel
Assay type in all cases: biochemical
LKB1 = molecular target: T1, LKB1 (Homo sapiens, UniProt Q15831); settings: read-out: % Activity Remaining
T1 sequence (Q15831 1-433): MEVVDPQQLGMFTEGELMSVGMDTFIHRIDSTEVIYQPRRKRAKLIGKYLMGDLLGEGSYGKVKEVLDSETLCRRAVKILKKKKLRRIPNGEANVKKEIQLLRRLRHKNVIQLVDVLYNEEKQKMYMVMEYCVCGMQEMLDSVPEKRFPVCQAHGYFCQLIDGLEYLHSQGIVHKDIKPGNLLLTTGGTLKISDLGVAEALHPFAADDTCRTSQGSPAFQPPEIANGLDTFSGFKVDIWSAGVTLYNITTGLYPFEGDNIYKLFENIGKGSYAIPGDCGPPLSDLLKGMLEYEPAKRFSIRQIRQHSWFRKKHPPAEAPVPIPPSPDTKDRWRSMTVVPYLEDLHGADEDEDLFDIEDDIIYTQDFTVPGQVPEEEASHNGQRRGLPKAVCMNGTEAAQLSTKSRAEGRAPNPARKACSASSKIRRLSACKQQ
T1 sequence (Q7RTN6 1-431 partner): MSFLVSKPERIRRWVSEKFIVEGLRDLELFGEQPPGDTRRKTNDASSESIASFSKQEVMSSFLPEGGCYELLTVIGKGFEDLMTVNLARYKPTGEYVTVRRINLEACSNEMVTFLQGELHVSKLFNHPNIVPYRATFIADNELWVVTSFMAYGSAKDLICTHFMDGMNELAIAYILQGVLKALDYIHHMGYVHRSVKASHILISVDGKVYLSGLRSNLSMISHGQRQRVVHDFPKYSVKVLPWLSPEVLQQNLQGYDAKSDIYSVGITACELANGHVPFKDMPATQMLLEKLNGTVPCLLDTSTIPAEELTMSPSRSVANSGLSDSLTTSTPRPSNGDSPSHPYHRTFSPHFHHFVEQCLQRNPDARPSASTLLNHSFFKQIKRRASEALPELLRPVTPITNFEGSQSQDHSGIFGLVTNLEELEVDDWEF
T1 sequence (Q9Y376 1-341 partner): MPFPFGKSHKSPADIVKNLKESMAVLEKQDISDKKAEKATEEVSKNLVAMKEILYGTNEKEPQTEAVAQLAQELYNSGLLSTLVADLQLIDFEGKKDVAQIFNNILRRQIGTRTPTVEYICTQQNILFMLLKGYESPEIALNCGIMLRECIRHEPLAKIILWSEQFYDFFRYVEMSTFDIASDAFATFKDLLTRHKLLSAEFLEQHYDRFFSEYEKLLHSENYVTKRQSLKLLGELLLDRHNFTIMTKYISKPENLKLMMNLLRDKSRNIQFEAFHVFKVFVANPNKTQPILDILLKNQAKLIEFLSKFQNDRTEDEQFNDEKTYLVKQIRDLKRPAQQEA
From the text: (§1) Protein kinase profiling against a Dundee panel of 140 protein kinases was undertaken at the International Centre for Protein Kinase Profiling. The result for each kinase was presented as a mean kinase activity of the reaction taken in triplicate relative to a control sample treated with DMSO. Assay conditions and abbreviations are available at http://www.kinase-screen.mrc.ac.uk.

PINK = molecular target: T2, PINK (Tribolium castaneum, UniProt D6WMX4)
T2 sequence (D6WMX4 1-570): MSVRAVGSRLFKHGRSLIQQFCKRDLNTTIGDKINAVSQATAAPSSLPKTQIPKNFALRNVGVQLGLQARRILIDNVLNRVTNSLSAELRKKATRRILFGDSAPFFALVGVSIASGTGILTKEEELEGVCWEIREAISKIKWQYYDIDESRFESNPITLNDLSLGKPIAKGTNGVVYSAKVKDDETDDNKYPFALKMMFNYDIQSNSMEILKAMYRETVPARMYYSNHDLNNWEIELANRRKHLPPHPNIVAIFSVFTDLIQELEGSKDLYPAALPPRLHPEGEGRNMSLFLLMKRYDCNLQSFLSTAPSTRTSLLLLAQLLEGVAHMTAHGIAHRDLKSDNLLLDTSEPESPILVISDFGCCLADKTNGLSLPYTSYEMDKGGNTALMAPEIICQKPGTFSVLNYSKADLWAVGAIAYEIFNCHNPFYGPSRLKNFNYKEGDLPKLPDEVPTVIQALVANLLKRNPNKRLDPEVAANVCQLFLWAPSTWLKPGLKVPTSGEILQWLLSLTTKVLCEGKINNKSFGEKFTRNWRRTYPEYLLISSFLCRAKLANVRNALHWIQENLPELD
From the text: as §1

NEK6 = NEK6 (Homo sapiens, UniProt Q9HC98); settings: read-out: % Activity Remaining
Chain of NEK6 (Q9HC98 whole entry): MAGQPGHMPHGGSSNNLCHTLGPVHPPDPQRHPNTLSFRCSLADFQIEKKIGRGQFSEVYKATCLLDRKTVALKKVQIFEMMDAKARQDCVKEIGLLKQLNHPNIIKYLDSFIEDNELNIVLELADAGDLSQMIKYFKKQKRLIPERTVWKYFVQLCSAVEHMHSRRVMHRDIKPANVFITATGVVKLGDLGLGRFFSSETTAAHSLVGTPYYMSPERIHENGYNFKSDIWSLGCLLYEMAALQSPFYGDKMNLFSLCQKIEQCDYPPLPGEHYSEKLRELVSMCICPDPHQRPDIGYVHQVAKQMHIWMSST
From the text: as §1

GCK = molecular target: T3, GCK (Homo sapiens, UniProt Q12851); settings: read-out: % Activity Remaining
T3 sequence (Q12851 1-820): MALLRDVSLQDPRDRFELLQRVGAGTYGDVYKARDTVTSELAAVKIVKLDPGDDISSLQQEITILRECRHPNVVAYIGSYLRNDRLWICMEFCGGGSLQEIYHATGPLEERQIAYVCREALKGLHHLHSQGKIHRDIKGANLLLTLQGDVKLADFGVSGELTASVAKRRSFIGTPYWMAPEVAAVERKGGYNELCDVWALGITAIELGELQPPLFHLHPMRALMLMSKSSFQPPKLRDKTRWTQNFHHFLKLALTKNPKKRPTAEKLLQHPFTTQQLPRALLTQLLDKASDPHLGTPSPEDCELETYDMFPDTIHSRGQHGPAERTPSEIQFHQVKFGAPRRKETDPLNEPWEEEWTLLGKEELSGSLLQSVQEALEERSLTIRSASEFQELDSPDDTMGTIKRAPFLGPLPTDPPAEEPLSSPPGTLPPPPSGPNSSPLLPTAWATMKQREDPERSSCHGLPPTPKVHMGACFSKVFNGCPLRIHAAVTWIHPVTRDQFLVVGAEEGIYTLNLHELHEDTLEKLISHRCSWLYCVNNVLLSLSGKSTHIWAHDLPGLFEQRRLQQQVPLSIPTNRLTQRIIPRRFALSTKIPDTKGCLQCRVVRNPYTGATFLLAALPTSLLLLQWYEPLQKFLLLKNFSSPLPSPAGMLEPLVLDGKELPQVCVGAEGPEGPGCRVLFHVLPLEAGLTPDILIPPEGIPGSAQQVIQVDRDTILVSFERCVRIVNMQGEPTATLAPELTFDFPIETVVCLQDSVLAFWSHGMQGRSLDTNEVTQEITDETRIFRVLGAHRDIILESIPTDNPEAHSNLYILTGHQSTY
From the text: as §1

MARK3 = MARK3 (Homo sapiens, UniProt P27448); settings: read-out: % Activity Remaining
Chain of MARK3 (P27448 whole entry): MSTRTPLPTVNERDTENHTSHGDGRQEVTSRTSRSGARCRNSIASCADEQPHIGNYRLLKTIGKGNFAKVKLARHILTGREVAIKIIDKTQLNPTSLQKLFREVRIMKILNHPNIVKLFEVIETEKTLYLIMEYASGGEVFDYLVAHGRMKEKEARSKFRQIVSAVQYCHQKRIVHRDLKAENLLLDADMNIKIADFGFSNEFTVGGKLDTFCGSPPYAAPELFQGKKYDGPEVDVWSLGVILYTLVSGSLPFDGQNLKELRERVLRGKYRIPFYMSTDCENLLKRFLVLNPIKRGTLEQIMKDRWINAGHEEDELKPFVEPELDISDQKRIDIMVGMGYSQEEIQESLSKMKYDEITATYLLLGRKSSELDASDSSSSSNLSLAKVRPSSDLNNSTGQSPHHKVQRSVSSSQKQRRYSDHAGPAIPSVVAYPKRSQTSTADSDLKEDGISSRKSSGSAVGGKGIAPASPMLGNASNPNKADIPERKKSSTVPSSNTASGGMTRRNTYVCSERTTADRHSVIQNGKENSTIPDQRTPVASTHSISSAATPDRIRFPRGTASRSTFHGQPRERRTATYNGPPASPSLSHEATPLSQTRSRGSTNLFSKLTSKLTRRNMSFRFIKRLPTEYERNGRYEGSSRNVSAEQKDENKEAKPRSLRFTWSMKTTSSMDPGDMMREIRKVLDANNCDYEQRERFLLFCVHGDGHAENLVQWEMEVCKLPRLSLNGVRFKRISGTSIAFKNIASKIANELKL
From the text: as §1

With Cc1ccc(F)c(S(=O)(=O)Nc2ccc(-c3nc(OC[C@H]4CN(CCCCCCOCCOCCOCC(=O)N[C@H](C(=O)N5C[C@H](O)C[C@H]5C(=O)NCc5ccc(-c6scnc6C)cc5)C(C)(C)C)CCO4)c4cn[nH]c4n3)cc2)c1 [SGK3-PROTAC1] the remaining activity at 1 µM (LKB1; 1 µM) was 105%, the remaining activity at 1 µM (PINK) was 108% and the remaining activity at 1 µM (NEK6; 1 µM) was 106%. For the same molecule, the remaining activity at 1 µM (GCK; 1 µM) was 99% and the remaining activity at 1 µM (MARK3; 1 µM) was 98%.
With COc1ccc(Cl)c(S(=O)(=O)Nc2ccc(-c3nc(OC[C@H]4CNCCO4)c4c(C)n[nH]c4n3)cc2)c1 [290-R, reference compound] the remaining activity at 1 µM (LKB1) was 106%, the remaining activity at 1 µM (PINK) was 99% and the remaining activity at 1 µM (NEK6) was 88%. It also gave a remaining activity at 1 µM (GCK) of 90% and a remaining activity at 1 µM (MARK3) of 89%.
For Cc1ccc(F)c(S(=O)(=O)Nc2ccc(-c3nc(OC[C@H]4CN(CCCCCCOCCOCCOCC(=O)N[C@H](C(=O)N5C[C@@H](O)C[C@H]5C(=O)NCc5ccc(-c6scnc6C)cc5)C(C)(C)C)CCO4)c4cn[nH]c4n3)cc2)c1 [cisSGK3-PROTAC1], the remaining activity at 1 µM (LKB1; 1 µM) was 112%, the remaining activity at 1 µM (PINK) was 109% and the remaining activity at 1 µM (NEK6; 1 µM) was 111%. For the same molecule, the remaining activity at 1 µM (GCK; 1 µM) was 96% and the remaining activity at 1 µM (MARK3; 1 µM) was 109%.
For Cc1ccc(F)c(S(=O)(=O)Nc2ccc(-c3nc(OC[C@H]4CNCCO4)c4cn[nH]c4n3)cc2)c1 [308-R, reference compound], the remaining activity at 1 µM (LKB1) was 96%, the remaining activity at 1 µM (PINK) was 119% and the remaining activity at 1 µM (NEK6) was 91%. It also gave a remaining activity at 1 µM (GCK) of 80% and a remaining activity at 1 µM (MARK3) of 103%.
